In PubChem BioAssay AID2060495 (Molecular Pharmacology Branch, DTP, NCI, 2025):

Test system: 521955-158-R2-J5-PDC complex spheroid viability
Assay: Anticancer human tumor 521955-158-R2-J5-PDC patient-derived pancreatic carcinoma cell line growth inhibition [GQUAD]
Conditions: for IC50: curve of first compound; for viability, T/C: stronger effect = lower value
Procedure, shortened: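 Tumor cells were grown as complex spheroids with HUVEC endothelial cells and mesenchymal stem cells as stroma. G-quadruplex stabilizers were combined with targeted agents over half-log dilutions from near the clinical Cmax, or from 10 microM.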

[1] = second compound 0.0316 µM, first compound 0.0316 µM
[2] = second compound 0.0316 µM, first compound 0.1 µM
[3] = second compound 0.0316 µM, first compound 0.316 µM
[4] = second compound 0.0316 µM, first compound 1 µM
[5] = second compound 0.0316 µM, first compound 3.16 µM
[6] = second compound 0.0316 µM, first compound 10 µM
[7] = second compound 0.1 µM, first compound 0.0316 µM
[8] = second compound 0.1 µM, first compound 0.1 µM
[9] = second compound 0.1 µM, first compound 0.316 µM
[10] = second compound 0.1 µM, first compound 1 µM
[11] = second compound 0.1 µM, first compound 3.16 µM
[12] = second compound 0.1 µM, first compound 10 µM
[13] = second compound 0.316 µM, first compound 0.0316 µM
[14] = second compound 0.316 µM, first compound 0.1 µM
[15] = second compound 0.316 µM, first compound 0.316 µM
[16] = second compound 0.316 µM, first compound 1 µM
[17] = second compound 0.316 µM, first compound 3.16 µM
[18] = second compound 0.316 µM, first compound 10 µM
[19] = second compound 1 µM, first compound 0.0316 µM
[20] = second compound 1 µM, first compound 0.1 µM
[21] = second compound 1 µM, first compound 0.316 µM
[22] = second compound 1 µM, first compound 1 µM
[23] = second compound 1 µM, first compound 3.16 µM
[24] = second compound 1 µM, first compound 10 µM
[25] = second compound 3.16 µM, first compound 0.0316 µM
[26] = second compound 3.16 µM, first compound 0.1 µM
[27] = second compound 3.16 µM, first compound 0.316 µM
[28] = second compound 3.16 µM, first compound 1 µM
[29] = second compound 3.16 µM, first compound 3.16 µM
[30] = second compound 3.16 µM, first compound 10 µM
[31] = second compound 10 µM, first compound 0.0316 µM
[32] = second compound 10 µM, first compound 0.1 µM
[33] = second compound 10 µM, first compound 0.316 µM
[34] = second compound 10 µM, first compound 1 µM
[35] = second compound 10 µM, first compound 3.16 µM
[36] = second compound 10 µM, first compound 10 µM
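Further: spheroids exposed to agents for one week before reading.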
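Wherever viability, T/C is given: 100% = DMSO vehicle control viability.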

Q: Which IC50 (second compound 0.0316 µM) does the source give for `C=CCn1c(=O)c2cnc(Nc3ccc(N4CCN(C)CC4)cc3)nc2n1-c1cccc(C(C)(C)O)n1` + CN(C)c1ccc(Nc2c3ccc(NC(=O)CCN4CCCC4)cc3nc3cc(NC(=O)CCN4CCCC4)ccc23)cc1 here?
A: Its IC50 is 189 nM.

Q: What about the IC50 (second compound 0.1 µM) of the same molecule?
A: The IC50 was 208 nM.

Q: What about the IC50 (second compound 0.316 µM) of the same molecule?
A: Its IC50 is 188 nM.

Q: And the IC50 (second compound 1 µM)?
A: Its IC50 is 207 nM.

Q: And the IC50 (second compound 3.16 µM)?
A: The IC50 was 201 nM.

Q: What about the IC50 (second compound 10 µM) of the same molecule?
A: The IC50 was 401 nM.

Q: What about the viability, T/C [1] of the same molecule?
A: Its viability, T/C is 112%.

Q: And the viability, T/C [2]?
A: Its viability, T/C is 76.5%.

Q: And the viability, T/C [3]?
A: The viability, T/C was 28.2%.

Q: What about the viability, T/C [4] of the same molecule?
A: The viability, T/C was 16.8%.

Q: And the viability, T/C [5]?
A: Its viability, T/C is 11.2%.

Q: And the viability, T/C [6]?
A: The viability, T/C was 13.4%.

Q: What about the viability, T/C [7] of the same molecule?
A: The viability, T/C was 107%.

Q: And the viability, T/C [8]?
A: The viability, T/C was 85.7%.

Q: And the viability, T/C [9]?
A: Its viability, T/C is 29.5%.

Q: And the viability, T/C [10]?
A: Its viability, T/C is 15.5%.

Q: And the viability, T/C [11]?
A: The viability, T/C was 14.3%.

Q: And the viability, T/C [12]?
A: The viability, T/C was 12.2%.

Q: And the viability, T/C [13]?
A: Its viability, T/C is 82.6%.

Q: What about the viability, T/C [14] of the same molecule?
A: Its viability, T/C is 80.7%.

Q: What about the viability, T/C [15] of the same molecule?
A: Its viability, T/C is 24.8%.

Q: What about the viability, T/C [16] of the same molecule?
A: Its viability, T/C is 11.6%.

Q: What about the viability, T/C [17] of the same molecule?
A: The viability, T/C was 14%.

Q: And the viability, T/C [18]?
A: The viability, T/C was 15.2%.

Q: And the viability, T/C [19]?
A: The viability, T/C was 90.5%.

Q: What about the viability, T/C [20] of the same molecule?
A: The viability, T/C was 85.2%.

Q: And the viability, T/C [21]?
A: Its viability, T/C is 29.5%.

Q: What about the viability, T/C [22] of the same molecule?
A: The viability, T/C was 15.9%.

Q: What about the viability, T/C [23] of the same molecule?
A: Its viability, T/C is 13.4%.

Q: And the viability, T/C [24]?
A: The viability, T/C was 16.2%.

Q: And the viability, T/C [25]?
A: Its viability, T/C is 84.6%.

Q: What about the viability, T/C [26] of the same molecule?
A: Its viability, T/C is 74.4%.

Q: And the viability, T/C [27]?
A: Its viability, T/C is 33.7%.

Q: And the viability, T/C [28]?
A: Its viability, T/C is 23.3%.

Q: And the viability, T/C [29]?
A: Its viability, T/C is 18.6%.

Q: What about the viability, T/C [30] of the same molecule?
A: Its viability, T/C is 13.5%.

Q: What about the viability, T/C [31] of the same molecule?
A: The viability, T/C was 65.1%.

Q: And the viability, T/C [32]?
A: Its viability, T/C is 67.6%.

Q: What about the viability, T/C [33] of the same molecule?
A: Its viability, T/C is 53.3%.

Q: What about the viability, T/C [34] of the same molecule?
A: The viability, T/C was 31.6%.

Q: What about the viability, T/C [35] of the same molecule?
A: Its viability, T/C is 7.79%.

Q: What about the viability, T/C [36] of the same molecule?
A: The viability, T/C was 1.53%.

Q: Which results are given for `CC1COCCN1c1cc(C2(O)CC3CCC(C2)O3)c2cnn(-c3ccn[nH]3)c2n1` (stereo not drawn) + Cc1cnc(CNC(=O)c2c(=O)c3ccc(N4CCCN(C)CC4)nc3n3c2sc2ccccc23)cn1?
A: IC50 (second compound 0.0316 µM): < 31.6 nM; IC50 (second compound 0.1 µM): < 31.6 nM; IC50 (second compound 0.316 µM): < 31.6 nM; IC50 (second compound 1 µM): < 31.6 nM; IC50 (second compound 3.16 µM): < 31.6 nM; IC50 (second compound 10 µM): < 31.6 nM; viability, T/C [1]: 23.8%; viability, T/C [2]: 11.8%; viability, T/C [3]: 15.9%; viability, T/C [4]: 13.4%; viability, T/C [5]: 18.2%; viability, T/C [6]: 8.84%; viability, T/C [7]: 23.1%; viability, T/C [8]: 13%; viability, T/C [9]: 11.2%; viability, T/C [10]: 13.4%; viability, T/C [11]: 15.3%; viability, T/C [12]: 8.46%; viability, T/C [13]: 23.8%; viability, T/C [14]: 14.9%; viability, T/C [15]: 12.8%; viability, T/C [16]: 14.5%; viability, T/C [17]: 15.3%; viability, T/C [18]: 5.38%; viability, T/C [19]: 18.4%; viability, T/C [20]: 13.7%; viability, T/C [21]: 11.1%; viability, T/C [22]: 12.1%; viability, T/C [23]: 10.5%; viability, T/C [24]: 4.62%; viability, T/C [25]: 14.2%; viability, T/C [26]: 13.5%; viability, T/C [27]: 10.7%; viability, T/C [28]: 9.81%; viability, T/C [29]: 6.85%; viability, T/C [30]: 0.99%; viability, T/C [31]: 14.2%; viability, T/C [32]: 13.7%; viability, T/C [33]: 10.6%; viability, T/C [34]: 8.67%; viability, T/C [35]: 6.98%; viability, T/C [36]: 0.78%

Q: What does the source list for `CC1COCCN1c1cc(C2(S(C)(=N)=O)CC2)nc(-c2ccnc3[nH]ccc23)n1` (stereo not drawn) + Cc1[nH]c2ccc(F)cc2c1-c1nc2c3cccnc3c3ncccc3c2[nH]1?
A: IC50 (second compound 0.0316 µM): 698 nM; IC50 (second compound 0.1 µM): 793 nM; IC50 (second compound 0.316 µM): 736 nM; IC50 (second compound 1 µM): 712 nM; IC50 (second compound 3.16 µM): 806 nM; IC50 (second compound 10 µM): 724 nM; viability, T/C [1]: 113%; viability, T/C [2]: 103%; viability, T/C [3]: 114%; viability, T/C [4]: 22.6%; viability, T/C [5]: 10.1%; viability, T/C [6]: 11.7%; viability, T/C [7]: 96.6%; viability, T/C [8]: 109%; viability, T/C [9]: 111%; viability, T/C [10]: 35.9%; viability, T/C [11]: 8.56%; viability, T/C [12]: 8.84%; viability, T/C [13]: 108%; viability, T/C [14]: 91.7%; viability, T/C [15]: 101%; viability, T/C [16]: 31.7%; viability, T/C [17]: 9.15%; viability, T/C [18]: 10.3%; viability, T/C [19]: 93.2%; viability, T/C [20]: 104%; viability, T/C [21]: 117%; viability, T/C [22]: 27.1%; viability, T/C [23]: 11.5%; viability, T/C [24]: 11.7%; viability, T/C [25]: 85.2%; viability, T/C [26]: 105%; viability, T/C [27]: 99.1%; viability, T/C [28]: 39.3%; viability, T/C [29]: 13.7%; viability, T/C [30]: 8.99%; viability, T/C [31]: 109%; viability, T/C [32]: 105%; viability, T/C [33]: 110%; viability, T/C [34]: 27.4%; viability, T/C [35]: 14.7%; viability, T/C [36]: 10.9%

Q: Which results are given for `Cc1cccc(N(C)C(=O)C2C(O)CCN2c2nc(C)cc(C(F)(F)F)c2C#N)c1` (stereo not drawn) + CN(C)c1ccc(Nc2c3ccc(NC(=O)CCN4CCCC4)cc3nc3cc(NC(=O)CCN4CCCC4)ccc23)cc1?
A: IC50 (second compound 0.0316 µM): > 10000 nM; IC50 (second compound 0.1 µM): > 10000 nM; IC50 (second compound 0.316 µM): > 10000 nM; IC50 (second compound 1 µM): > 10000 nM; IC50 (second compound 3.16 µM): > 10000 nM; IC50 (second compound 10 µM): 2590 nM; viability, T/C [1]: 110%; viability, T/C [2]: 102%; viability, T/C [3]: 99.6%; viability, T/C [4]: 107%; viability, T/C [5]: 103%; viability, T/C [6]: 116%; viability, T/C [7]: 102%; viability, T/C [8]: 91.4%; viability, T/C [9]: 99.3%; viability, T/C [10]: 96.3%; viability, T/C [11]: 125%; viability, T/C [12]: 109%; viability, T/C [13]: 104%; viability, T/C [14]: 95.2%; viability, T/C [15]: 103%; viability, T/C [16]: 118%; viability, T/C [17]: 130%; viability, T/C [18]: 99.9%; viability, T/C [19]: 84.6%; viability, T/C [20]: 99.7%; viability, T/C [21]: 96.3%; viability, T/C [22]: 86%; viability, T/C [23]: 94.4%; viability, T/C [24]: 84.2%; viability, T/C [25]: 85.8%; viability, T/C [26]: 72.1%; viability, T/C [27]: 77.4%; viability, T/C [28]: 78%; viability, T/C [29]: 93.4%; viability, T/C [30]: 54.1%; viability, T/C [31]: 67.2%; viability, T/C [32]: 54.3%; viability, T/C [33]: 58%; viability, T/C [34]: 58.4%; viability, T/C [35]: 48.5%; viability, T/C [36]: 18.8%
